# From patent US20040063662A1, “Selenophene anti-tumor agents” (priority 1996, published 2004)
# Columns and labels:
# SK-MEL-5 = assay: NCI human tumor cell panel: SK-MEL-5 (Melanoma); assay type: cell-based; settings: for IC (TGI): SK-MEL-5, read-out: Log10 TGI (converted)
# NCI-H226 = assay: NCI human tumor cell panel: NCI-H226 (Non-Small Cell Lung Cancer); assay type: cell-based; settings: for GI50: NCI-H226, read-out: Log10 GI50 (converted); for IC (TGI): NCI-H226, read-out: Log10 TGI (converted)
# HCT-116 = assay: NCI human tumor cell panel: HCT-116 (Colon Cancer); assay type: cell-based; settings: for GI50: HCT-116, read-out: Log10 GI50 (converted); for IC (TGI): HCT-116, read-out: Log10 TGI (converted)
# A549/ATCC = assay: NCI human tumor cell panel: A549/ATCC (Non-Small Cell Lung Cancer); assay type: cell-based; settings: for GI50: read-out: Log10 GI50 (converted); for IC (TGI): read-out: Log10 TGI (converted)
# OVCAR-8 = assay: NCI human tumor cell panel: OVCAR-8 (Ovarian Cancer); assay type: cell-based; settings: for GI50: OVCAR-8, read-out: Log10 GI50 (converted); for IC (TGI): OVCAR-8, read-out: Log10 TGI (converted)
# A498 = assay: NCI human tumor cell panel: A498 (Renal Cancer); assay type: cell-based; settings: for GI50: A498, read-out: Log10 GI50 (converted); for IC (TGI): A498, read-out: Log10 TGI (converted)
# COLO 205 = assay: NCI human tumor cell panel: COLO 205 (Colon Cancer); assay type: cell-based; settings: for GI50: COLO 205, read-out: Log10 GI50 (converted)
# [1] = system: panel of sixty different human tumor cell lines; assay: NCI human tumor cell panel: whole panel (mean graph summary)
# SK-OV-3 = assay: NCI human tumor cell panel: SK-OV-3 (Ovarian Cancer); assay type: cell-based; settings: for GI50: SK-OV-3, read-out: Log10 GI50 (converted)
# MOLT-4 = assay: NCI human tumor cell panel: MOLT-4 (Leukemia); assay type: cell-based; settings: for GI50: MOLT-4, read-out: Log10 GI50 (converted); for IC (TGI): MOLT-4, read-out: Log10 TGI (converted)
# MALME-3M = assay: NCI human tumor cell panel: MALME-3M (Melanoma); assay type: cell-based; settings: Malme-3M; for GI50: read-out: Log10 GI50 (converted)
# SF-268 = assay: NCI human tumor cell panel: SF-268 (CNS Cancer); assay type: cell-based; settings: for GI50: SF-268, read-out: Log10 GI50 (converted); for IC (TGI): SF-268, read-out: Log10 TGI (converted)
# UACC-62 = assay: NCI human tumor cell panel: UACC-62 (Melanoma); assay type: cell-based; settings: for GI50: UACC-62, read-out: Log10 GI50 (converted); for IC (TGI): UACC-62, read-out: Log10 TGI (converted)
# ACHN = assay: NCI human tumor cell panel: ACHN (Renal Cancer); assay type: cell-based; settings: for GI50: read-out: Log10 GI50 (converted); for IC (TGI): read-out: Log10 TGI (converted)
# T-47D = assay: NCI human tumor cell panel: T-47D (Breast Cancer); assay type: cell-based; settings: T47D; for GI50: read-out: Log10 GI50 (converted); for IC (TGI): read-out: Log10 TGI (converted)
# K-562 = assay: NCI human tumor cell panel: K-562 (Leukemia); assay type: cell-based; settings: for GI50: K562, K-562, read-out: Log10 GI50 (converted); for IC (TGI): K562, K-562, read-out: Log10 TGI (converted)
# HL-60(TB) = assay: NCI human tumor cell panel: HL-60(TB) (Leukemia); assay type: cell-based; settings: for GI50: read-out: Log10 GI50 (converted); for IC (TGI): read-out: Log10 TGI
# MCF7 = assay: NCI human tumor cell panel: MCF7 (Breast Cancer); assay type: cell-based; settings: for GI50: MCF7, read-out: Log10 GI50 (converted); for IC (TGI): MCF7, read-out: Log10 TGI (converted)
# OVCAR-3 = assay: NCI human tumor cell panel: OVCAR-3 (Ovarian Cancer); assay type: cell-based; settings: for GI50: OVCAR-3, read-out: Log10 GI50 (converted); for IC (TGI): OVCAR-3, read-out: Log10 TGI (converted)
# RPMI-8226 = assay: NCI human tumor cell panel: RPMI-8226 (Leukemia); assay type: cell-based; settings: for GI50: RPMI-8226, read-out: Log10 GI50 (converted); for IC (TGI): RPMI-8226, read-out: Log10 TGI
# UACC-257 = assay: NCI human tumor cell panel: UACC-257 (Melanoma); assay type: cell-based; settings: for GI50: UACC-257, read-out: Log10 GI50 (converted); for IC (TGI): UACC-257, read-out: Log10 TGI (converted)
# SN12C = assay: NCI human tumor cell panel: SN12C (Renal Cancer); assay type: cell-based; settings: for GI50: read-out: Log10 GI50 (converted); for IC (TGI): read-out: Log10 TGI (converted)
# DU-145 = assay: NCI human tumor cell panel: DU-145 (Prostate Cancer); assay type: cell-based; settings: for GI50: DU-145, read-out: Log10 GI50 (converted); for IC (TGI): DU-145, read-out: Log10 TGI (converted)
# CCRF-CEM = assay: NCI human tumor cell panel: CCRF-CEM (Leukemia); assay type: cell-based; settings: for GI50: read-out: Log10 GI50 (converted); for IC (TGI): read-out: Log10 TGI (converted)
# RXF-393 = assay: NCI human tumor cell panel: RXF-393 (Renal Cancer); assay type: cell-based; settings: for GI50: RXF-393, read-out: Log10 GI50 (converted); for IC (TGI): RXF-393, read-out: Log10 TGI (converted)
# CAKI-1 = assay: NCI human tumor cell panel: CAKI-1 (Renal Cancer); assay type: cell-based; settings: for GI50: CAKI-1, read-out: Log10 GI50 (converted); for IC (TGI): CAKI-1, read-out: Log10 TGI (converted)
# MDA-MB-231/ATCC = assay: NCI human tumor cell panel: MDA-MB-231/ATCC (Breast Cancer); assay type: cell-based; settings: Homo sapiens, MDA-MB-231, MDA-MB-231/ATCC; for GI50: read-out: Log10 GI50 (converted); for IC (TGI): read-out: Log10 TGI (converted)
# KM12 = assay: NCI human tumor cell panel: KM12 (Colon Cancer); assay type: cell-based; settings: for GI50: KM12, read-out: Log10 GI50 (converted); for IC (TGI): KM12, read-out: Log10 TGI (converted)
# SW-620 = assay: NCI human tumor cell panel: SW-620 (Colon Cancer); assay type: cell-based; settings: for GI50: SW-620, read-out: Log10 GI50 (converted); for IC (TGI): SW-620, read-out: Log10 TGI (converted)
compound,measurement,setting,value
OCc1ccc(-c2ccc(-c3ccc(CO)s3)[se]2)s1 [compound 675343],IC (TGI),SK-MEL-5,> 100 µM
same,GI50,NCI-H226,< 0.01 µM
same,IC (TGI),NCI-H226,0.0724 µM
same,GI50,HCT-116,< 0.01 µM
same,IC (TGI),HCT-116,> 100 µM
same,GI50,A549/ATCC,> 100 µM
same,IC (TGI),A549/ATCC,> 100 µM
same,GI50,OVCAR-8,< 0.01 µM
same,IC (TGI),OVCAR-8,> 100 µM
same,GI50,A498,< 0.01 µM
same,IC (TGI),A498,< 0.01 µM
same,GI50,COLO 205,< 0.01 µM
same,IC (TGI),"COLO 205; COLO 205, read-out: Log10 TGI (converted)",1.05 µM
same,"Log10 GI50, Delta",[1]; whole panel,−5.36
same,"Log10 LC50, Delta",[1]; whole panel,−4.06
same,"Log10 TGI, Delta",[1]; whole panel,−4.41
same,"Log10 TGI, Range",[1]; whole panel,3.59
same,GI50,SK-OV-3,> 100 µM
same,GI50,MOLT-4,28.8 µM
same,IC (TGI),MOLT-4,87.1 µM
same,GI50,MALME-3M,> 100 µM
same,IC (TGI),MALME-3M; read-out: Log10 TGI (converted),> 100 µM
same,GI50,SF-268,> 100 µM
same,IC (TGI),SF-268,> 100 µM
same,GI50,UACC-62,< 0.01 µM
same,IC (TGI),UACC-62,> 100 µM
same,GI50,ACHN,> 100 µM
same,IC (TGI),ACHN,> 100 µM
same,GI50,T-47D,0.724 µM
same,IC (TGI),T-47D,> 100 µM
same,GI50,K-562,< 0.01 µM
same,IC (TGI),K-562,26.3 µM
same,GI50,HL-60(TB),61.7 µM
same,IC (TGI),HL-60(TB),> 100 µM
same,GI50,MCF7,< 0.01 µM
same,IC (TGI),MCF7,> 100 µM
same,GI50,OVCAR-3,0.0257 µM
same,IC (TGI),OVCAR-3,32.4 µM
same,GI50,RPMI-8226,> 100 µM
same,IC (TGI),RPMI-8226,> 100 µM
same,GI50,UACC-257,< 0.01 µM
same,IC (TGI),UACC-257,< 0.01 µM
same,GI50,SN12C,> 100 µM
same,IC (TGI),SN12C,> 100 µM
same,GI50,DU-145,> 100 µM
same,IC (TGI),DU-145,> 100 µM
same,GI50,CCRF-CEM,22.4 µM
same,IC (TGI),CCRF-CEM,60.3 µM
same,GI50,RXF-393,20.9 µM
same,IC (TGI),RXF-393,> 100 µM
same,GI50,CAKI-1,< 0.01 µM
same,IC (TGI),CAKI-1,< 0.01 µM
same,GI50,MDA-MB-231/ATCC,> 100 µM
same,IC (TGI),MDA-MB-231/ATCC,> 100 µM
same,GI50,KM12,> 100 µM
same,IC (TGI),KM12,> 100 µM
same,GI50,SW-620,< 0.01 µM
same,IC (TGI),SW-620,> 100 µM
OCc1ccc(-c2ccc(-c3ccc[se]3)s2)[se]1 [compound 676631],GI50,"SK-MEL-5; SK-MEL-5, read-out: Log10 GI50 (converted)",> 100 µM
same,IC (TGI),SK-MEL-5,> 100 µM
same,GI50,NCI-H226,0.0501 µM
same,IC (TGI),NCI-H226,0.182 µM
same,GI50,HCT-116,0.0537 µM
same,IC (TGI),HCT-116,> 100 µM
same,GI50,A549/ATCC,58.9 µM
same,IC (TGI),A549/ATCC,> 100 µM
same,GI50,OVCAR-8,24.5 µM
same,IC (TGI),OVCAR-8,> 100 µM
same,GI50,A498,0.0275 µM
same,IC (TGI),A498,0.0832 µM
same,GI50,COLO 205,0.288 µM
same,GI50,"[1]; Homo sapiens, read-out: Log10 GI50, MG_MID, mean over the panel (converted)",6.61 µM
same,"Log10 LC50, MG_MID",[1]; mean over the panel,−4.15
same,"Log10 TGI, MG_MID",[1]; mean over the panel,−4.47
same,"Log10 TGI, Delta",[1]; whole panel,2.61
same,"Log10 TGI, Range",[1]; whole panel,3.08
same,GI50,SK-OV-3,45.7 µM
same,IC (TGI),"SK-OV-3; SK-OV-3, read-out: Log10 TGI (converted)",> 100 µM
same,GI50,MOLT-4,> 100 µM
same,IC (TGI),MOLT-4,> 100 µM
same,GI50,MALME-3M,> 100 µM
same,GI50,SF-268,23.4 µM
same,IC (TGI),SF-268,64.6 µM
same,GI50,UACC-62,0.0263 µM
same,IC (TGI),UACC-62,0.115 µM
same,GI50,ACHN,> 100 µM
same,IC (TGI),ACHN,> 100 µM
same,GI50,T-47D,0.676 µM
same,IC (TGI),T-47D,> 100 µM
same,GI50,K-562,0.102 µM
same,IC (TGI),K-562,> 100 µM
same,GI50,HL-60(TB),> 100 µM
same,IC (TGI),HL-60(TB),> 100 µM
same,GI50,MCF7,0.0933 µM
same,IC (TGI),MCF7,21.9 µM
same,GI50,OVCAR-3,0.0275 µM
same,IC (TGI),OVCAR-3,0.138 µM
same,GI50,RPMI-8226,> 100 µM
same,IC (TGI),RPMI-8226,> 100 µM
same,GI50,UACC-257,0.0316 µM
same,IC (TGI),UACC-257,> 100 µM
same,GI50,SN12C,> 100 µM
same,IC (TGI),SN12C,> 100 µM
same,GI50,DU-145,20 µM
same,IC (TGI),DU-145,77.6 µM
same,GI50,CCRF-CEM,> 100 µM
same,IC (TGI),CCRF-CEM,> 100 µM
same,GI50,RXF-393,72.4 µM
same,IC (TGI),RXF-393,> 100 µM
same,GI50,CAKI-1,0.0309 µM
same,IC (TGI),CAKI-1,0.191 µM
same,GI50,MDA-MB-231/ATCC,19.1 µM
same,IC (TGI),MDA-MB-231/ATCC,87.1 µM
same,GI50,KM12,26.9 µM
same,IC (TGI),KM12,> 100 µM
same,GI50,SW-620,0.355 µM
same,IC (TGI),SW-620,> 100 µM
